From US20230365488A1, “TRUXILLIC ACID MONOESTER-DERIVATIVES AS SELECTIVE FABP5 INHIBITORS AND PHARMACEUTICAL COMPOSITIONS AND USES THEREOF” (The Research Foundation for The State University of New York, priority 2020, published 2023) come the findings set out here.

Molecules are shown by their SMILES.

One may read the Ki as the dissociation constant of the complex between target and ligand, obtained from inhibition or displacement. Read a low Ki as tighter binding.

Assay [1] has as its target FABP3 (Homo sapiens (Human), UniProt P05413). In words: FABP3 fluorescent probe displacement binding assay. The following applies: average ± S.E. of at least three independent experiments.
For assay [2], the target named is FABP7 (Homo sapiens (Human), UniProt O15540). In words: FABP7 fluorescent probe displacement binding assay. To be noted: average ± S.E. of at least three independent experiments.
The target in assay [3] is FABP5 (Homo sapiens (Human), UniProt Q01469). Briefly: FABP5 fluorescent probe displacement binding assay. To be noted: for Ki: average ± S.E. of at least three independent experiments; for FABP3 Ki/FABP5 Ki: selectivity ratio FABP3 over FABP5.
Sequence of FABP5 (Q01469 whole entry): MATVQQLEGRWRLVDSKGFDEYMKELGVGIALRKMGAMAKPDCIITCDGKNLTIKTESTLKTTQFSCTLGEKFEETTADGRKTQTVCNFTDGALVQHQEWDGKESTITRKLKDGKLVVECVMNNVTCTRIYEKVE

Sequence of FABP7 (O15540 whole entry): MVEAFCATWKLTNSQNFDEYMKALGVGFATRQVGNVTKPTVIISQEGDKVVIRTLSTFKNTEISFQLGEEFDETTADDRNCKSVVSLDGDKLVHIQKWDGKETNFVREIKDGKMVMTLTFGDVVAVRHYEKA
Sequence of FABP3 (P05413 whole entry): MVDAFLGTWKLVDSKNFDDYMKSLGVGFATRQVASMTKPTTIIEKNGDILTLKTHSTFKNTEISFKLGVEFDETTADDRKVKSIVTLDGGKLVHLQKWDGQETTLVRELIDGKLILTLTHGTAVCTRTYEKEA

`COc1ccccc1[C@H]1[C@H](C(=O)O)[C@H](c2ccccc2OC)[C@@H]1C(=O)Oc1cccc2ccccc12` (racemic) [Compound 2f, (±)-γ-2,4-di (2-methoxyphenyl)-3-(naphthalen-1-yloxycarbonyl)cyclobutane-1-carboxylic acid]: the inhibitory constant (Ki) in assay [1] was determined as 1.66 ± 0.45 µM; in assay [2] it was 1.45 ± 0.52 µM.
With `COc1ccccc1C1[C@@H](C(=O)O)[C@@H](c2ccccc2OC)[C@H]1C(=O)Oc1cccc(-c2ccc3c(c2)OCCO3)c1` (mixture of isomers) [Compound 2k, (±)-γ-3-[3-(2,3-dihydrobenzo[b][1,4]dioxin-6-yl)phenoxycarbonyl]-2,4-di(2-methoxyphenyl)cyclobutane-1-carboxylic acid], the Ki in assay [1] was 8.18 ± 2.67 µM; in assay [3], 3.69 ± 0.65 µM; in assay [2], 5.12 ± 0.32 µM. The “FABP3 Ki/FABP5 Ki” value in assay [3] is listed as 2.2.
For the molecule `COc1ccccc1C1[C@@H](C(=O)O)[C@@H](c2ccccc2OC)[C@@H]1C(=O)Oc1cccc(-c2ccc3c(c2)NC(=O)C3)c1` (mixture of isomers) [Compound 1j, (±)-α-2,4-di (2-methoxyphenyl)-3-[3-(2-oxoindolin-6-yl)phenoxycarbonyl]cyclobutane-1-carboxylic acid], the Ki in assay [1] turned out to be 3.29 ± 0.45 µM; in assay [3], 1.06 ± 0.08 µM.
`O=C1CCc2cc(-c3cccc(OC(=O)[C@H]4[C@@H](c5ccccc5)[C@@H](C(=O)O)[C@@H]4c4ccccc4)c3)ccc2N1` (racemic) [Compound 2n, (±)-γ-3-[(3-(2-oxo-1,2,3,4-tetrahydroquinolin-6-yl)phenoxycarbonyl]-2,4-diphenylcyclobutane-1-carboxylic acid]: the inhibitory constant (Ki) in assay [1] is 4.07 ± 0.24 µM; in assay [3] it was 7.59 ± 1.11 µM; in assay [2], 3.49 ± 0.49 µM. For the same molecule, the “FABP3 Ki/FABP5 Ki” value in assay [3] is recorded as 0.54.
For `COc1ccccc1[C@H]1[C@H](C(=O)O)[C@H](c2ccccc2OC)[C@@H]1C(=O)Oc1cccc(-c2ccc(F)cc2)c1` (racemic) [Compound 2e, (±)-γ-3-(4′-fluoro-1,1′-biphenyl-3-yl)oxycarbonyl-2,4-di (2-methoxyphenyl)cyclobutane-1-carboxylic acid], the Ki in assay [1] is 6.1 ± 1.34 µM; in assay [3], 1.77 ± 0.02 µM; in assay [2], 3.59 ± 0.24 µM. The “FABP3 Ki/FABP5 Ki” value in assay [3] was found to be 3.4.
For the molecule `O=C(O)[C@@H]1[C@@H](c2ccccc2)[C@H](C(=O)OC2Cc3ccccc3C2)[C@H]1c1ccccc1` [Compound 3a, (±)-ε-3-[(2,3-dihydro-1H-inden-2-yl)oxycarbonyl]-2,4-diphenylcyclobutane-1-carboxylic acid], the inhibitory constant (Ki) in assay [1] came out at 4.75 ± 0.57 µM; in assay [2] it was 2.07 ± 0.09 µM.
In the case of `O=C1CCc2ccc(-c3cccc(OC(=O)[C@H]4[C@@H](c5ccccc5)[C@H](C(=O)O)[C@@H]4c4ccccc4)c3)cc2N1` [Compound 1u], the inhibition constant Ki in assay [1] worked out at 7.67 ± 0.71 µM; in assay [3], 0.59 ± 0.08 µM; in assay [2] it was 0.33 ± 0.01 µM. In addition, the “FABP3 Ki/FABP5 Ki” value in assay [3] is 13.0.
For `O=C(O)[C@H]1[C@H](c2ccccc2)[C@H](C(=O)Oc2cccc3ccccc23)[C@H]1c1ccccc1` [Compound 1x], the inhibitory constant (Ki) in assay [1] was found to be 2.7 ± 0.42 µM; in assay [2], 0.45 ± 0.07 µM.
The corresponding values for `COc1ccccc1C1[C@@H](C(=O)OC2Cc3ccccc3C2)[C@@H](c2ccccc2OC)[C@H]1C(=O)O` (mixture of isomers) [Compound 2l, (±)-γ-3-(2,3-dihydro-1H-inden-2-yloxycarbonyl)-2,4-bis(2-methoxyphenyl)cyclobutane-1-carboxylic acid] are 136 ± 16.4 µM and 5.14 ± 0.27 µM.
Consider `O=C(O)[C@@H]1[C@@H](c2ccccc2)[C@H](C(=O)Oc2cccc(-c3ccccc3)c2)[C@H]1c1ccccc1` [Compound 3b, (±) -ε-3-(1,1′-biphenyl-3-yloxycarbonyl)-2,4-diphenylcyclobutane-1-carboxylic acid], for which the Ki in assay [1] is 18.6 ± 0.73 µM; in assay [2] it was 2.15 ± 0.09 µM.
Consider `O=C(O)[C@H]1[C@H](c2ccccc2)[C@H](C(=O)Oc2ccccc2-c2ccccc2)[C@H]1c1ccccc1` [Compound 1z], for which, in assay [1], the Ki worked out at 0.7 ± 0.42 µM.
`O=C(O)[C@H]1[C@@H](c2ccccc2)[C@H](C(=O)OC2Cc3ccccc3C2)[C@@H]1c1ccccc1` [Compound 1v]: the Ki was over 10 µM in assay [1] and 2.41 ± 0.09 µM in assay [2].
